We go through four compounds from paper PMC7456513 (ACS infectious diseases, 2020).

Assay in all cases: tryptophan fluorescence quenching titration
Type in all cases: binding

Test [1] concerns the target T1, HasAp (Pseudomonas aeruginosa, UniProt G3XD33).
The target in test [2] is T1, HasAp. The note with it: read-out: KD (nM, ± SD).
Test [3] deals with T1, HasAp. The following applies: read-out: KD (nM, ± SD). This is another data set of the same source.

Read-outs that look alike come from different tables or passages of the source.

In turn, `C=CC1=C(C)C2=Cc3c(C=C)c(C)c4[n]3[Fe][n]3c(c(C)c(CCC(=O)O)c3=CC3=NC(=C4)C(C)=C3CCC(=O)O)=CC1=N2` [heme] returned a Kd in test [1] of 350 ± 50 nM.
On to `C=CC1=C(C)C2=[N+]3C1=Cc1c(C)c(C=C)c4[n]1[Ga-]31[n]3c(c(C)c(CCC(=O)O)c3=CC3=[N+]1C(=C4)C(C)=C3CCC(=O)O)=C2` (stereo not shown) [GaPPIX], for which, in test [2], the Kd amounted to 280 ± 30 nM.
In the case of `C1=[N+]2c3ccccc3[N+]3=Cc4ccccc4[O][Ga-]23[O]c2ccccc21` [GaSal], the Kd in test [3] turned out to be 2050 ± 280 nM.
Regarding `C1=[N+]2c3ccccc3[N+]3=Cc4ccccc4[O][Fe-]23[O]c2ccccc21` [FeSal], the Kd in test [2] is 1050 ± 100 nM.

The term Kd denotes a measure of binding affinity in units of concentration.
